The supplement of paper PMC11208160

Test: recombinant UMI read abundance after kanamycin selection (control-corrected) (log10(CPM+1)); higher = more efficient recombination; extreme values may be limits of the assay; sequences stand for … in AGTGCAGAGAAAATCGGCCAGTTTTCTCTGCCTGCAGTCCGCATGCCGTGGGACCCCTTGGGTTCTAACCTGTTGCCTAGATTTATGCAGCGGACTGCCTTTCTCCCAAAGTGATAAACCGG…AGGTTGGTTTCACT; site = the 11-nt donor
Protocol: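 Pooled E. coli donor-specificity screen for the IS621 bridge recombinase. Each library member carries a reprogrammed 11-nt donor and a full-length LE bridge RNA expressed in cis from the natural promoter, with a paired donor-binding loop (8-nt LDG + 4-nt RDG) and a target-binding loop fixed to T5. It is co-electroporated with a T5 target plasmid; recombinase is induced with 0.07 mM IPTG and recombinants are selected on kanamycin. UMIs are counted as CPM, averaged over two biological replicates and corrected by the unselected control. Molecule = full bridge RNA written as DNA, built from the T5 scaffold: LDG = donor specificity nt 1-8, RDG = reverse complement of nt 8-11.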
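Further: IS621 bridge recombinase in Escherichia coli cells against a fixed T5 target plasmid.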

| Sequence | recombinant UMI read abundance (log10) |
| --- | --- |
| AATGTGTCATGGACCGGTTTTCCCGGTAATCCGTATTTGAC (site AATGTCTCTGT) | 0 |
| AATGTGTCATGGACCGGTTTTCCCGGTAATCCGTATTTGAC (site AATGTGACTGT) | 0.00331 |
| AATGTGTCATGGACCGGTTTTCCCGGTAATCCGTATTTGAC (site AATGTGCCTGT) | 0 |
| AATGTGTCATGGACCGGTTTTCCCGGTAATCCGTATTTGAC (site AATGTGGCTGT) | 0 |
| AATGTGTCATGGACCGGTTTTCCCGGTAATCCGTATTTGAC (site AATGTGTCTAT) | 0.00893 |
| AATGTGTCATGGACCGGTTTTCCCGGTAATCCGTATTTGAC (site AATGTGTCTCT) | 0.028 |
| AATGTGTCATGGACCGGTTTTCCCGGTAATCCGTATTTGAC (site AATGTGTCTGA) | 0 |
| AATGTGTCATGGACCGGTTTTCCCGGTAATCCGTATTTGAC (site AATGTGTCTGC) | 0 |
| AATGTGTCATGGACCGGTTTTCCCGGTAATCCGTATTTGAC (site AATGTGTCTGG) | 0 |
| AATGTGTCATGGACCGGTTTTCCCGGTAATCCGTATTTGAC (site AATGTGTCTGT) | 1.77 |
| AATGTGTCATGGACCGGTTTTCCCGGTAATCCGTATTTGAC (site AATGTGTCTTT) | 0.181 |
| AATGTGTCATGGACCGGTTTTCCCGGTAATCCGTATTTGAC (site AATGTTTCTGT) | 0 |
| AATGTGTCATGGACCGGTTTTCCCGGTAATCCGTATTTGAC (site AATTTGTCTGT) | 0 |
| AATGTGTCATGGACCGGTTTTCCCGGTAATCCGTATTTGAC (site ACTGTGTCTGT) | 0 |
| AATGTGTCATGGACCGGTTTTCCCGGTAATCCGTATTTGAC (site AGTGTGTCTGT) | 0 |
| AATGTGTCATGGACCGGTTTTCCCGGTAATCCGTATTTGAC (site ATTGTGTCTGT) | 0.71 |
| AATGTGTCATGGACCGGTTTTCCCGGTAATCCGTATTTGAC (site CATGTGTCTGT) | 0.999 |
| AATGTGTCATGGACCGGTTTTCCCGGTAATCCGTATTTGAC (site GATGTGTCTGT) | 0 |
| AATGTGTCATGGACCGGTTTTCCCGGTAATCCGTATTTGAC (site TATGTGTCTGT) | 1.95 |
| AATGTGTCATGGACCGGTTTTCCCGGTAATCCGTATTTGTC (site AATGTGTCTGA) | 2.97 |
| AATGTGTCATGGACCGGTTTTCCCGGTAATCCGTATTTGTC (site AATGTGTCTGC) | 0.999 |
| AATGTGTCATGGACCGGTTTTCCCGGTAATCCGTATTTGTC (site AATGTGTCTGG) | 1.29 |
| AATGTGTCATGGACCGGTTTTCCCGGTAATCCGTATTTGTC (site AATGTGTCTGT) | 0.364 |
| AATTACGCATGGACCGGTTTTCCCGGTAATCCGTATTTGGA (site AATTAAGCTTC) | 0.428 |

| Sequence | recombinant UMI read abundance (log10) |
| --- | --- |
| AATTACGCATGGACCGGTTTTCCCGGTAATCCGTATTTGGA (site AATTACGCTTC) | 0.807 |
| AATTACGCATGGACCGGTTTTCCCGGTAATCCGTATTTGGA (site AATTAGGCTTC) | 0.158 |
| AATTACGCATGGACCGGTTTTCCCGGTAATCCGTATTTGGA (site AATTATGCTTC) | 0.344 |
| AATTATGCATGGACCGGTTTTCCCGGTAATCCGTATTTGCA (site AATTATGCTTA) | 0.00932 |
| AATTATGCATGGACCGGTTTTCCCGGTAATCCGTATTTGCA (site AATTATGCTTC) | 0.00784 |
| AATTATGCATGGACCGGTTTTCCCGGTAATCCGTATTTGCA (site AATTATGCTTG) | 1.85 |
| AATTATGCATGGACCGGTTTTCCCGGTAATCCGTATTTGCA (site AATTATGCTTT) | 0.00931 |
| AATTCTGCATGGACCGGTTTTCCCGGTAATCCGTATTTGGA (site AATTATGCTTC) | 0.384 |
| AATTCTGCATGGACCGGTTTTCCCGGTAATCCGTATTTGGA (site AATTCTGCTTC) | 0.349 |
| AATTCTGCATGGACCGGTTTTCCCGGTAATCCGTATTTGGA (site AATTGTGCTTC) | 0.0372 |
| AATTCTGCATGGACCGGTTTTCCCGGTAATCCGTATTTGGA (site AATTTTGCTTC) | 0.00758 |
| AATTGGACATGGACCGGTTTTCCCGGTAATCCGTATTTGAC (site AATTGGACTGT) | 1.21 |
| AATTGGACATGGACCGGTTTTCCCGGTAATCCGTATTTGAC (site CATTGGACTGT) | 0.955 |
| AATTGGACATGGACCGGTTTTCCCGGTAATCCGTATTTGAC (site GATTGGACTGT) | 0.231 |
| AATTGGACATGGACCGGTTTTCCCGGTAATCCGTATTTGAC (site TATTGGACTGT) | 1.67 |
| AATTGTACATGGACCGGTTTTCCCGGTAATCCGTATTTGTC (site AATTGTACTGA) | 0.692 |
| AATTGTGCATGGACCGGTTTTCCCGGTAATCCGTATTTGAC (site AATTGTGCTGT) | 2.25 |
| AATTGTGCATGGACCGGTTTTCCCGGTAATCCGTATTTGCC (site AATTGTGCTGG) | 0.735 |
| AATTTAACATGGACCGGTTTTCCCGGTAATCCGTATTTGCT (site AATATAACTAG) | 1.68 |
| AATTTAACATGGACCGGTTTTCCCGGTAATCCGTATTTGCT (site AATCTAACTAG) | 1.95 |
| AATTTAACATGGACCGGTTTTCCCGGTAATCCGTATTTGCT (site AATGTAACTAG) | 0.828 |
| AATTTAACATGGACCGGTTTTCCCGGTAATCCGTATTTGCT (site AATTTAACTAG) | 2.28 |
| AATTTATCATGGACCGGTTTTCCCGGTAATCCGTATTTGTT (site AATTTATCTAA) | 0.558 |
| ACAAACCCATGGACCGGTTTTCCCGGTAATCCGTATTTGGG (site ACAAACCCTCC) | 0 |

| Sequence | recombinant UMI read abundance (log10) |
| --- | --- |
| ACAAATCCATGGACCGGTTTTCCCGGTAATCCGTATTTGAC (site ACAAATCCTGT) | 0.255 |
| ACAAATCCATGGACCGGTTTTCCCGGTAATCCGTATTTGAC (site ACACATCCTGT) | 0 |
| ACAAATCCATGGACCGGTTTTCCCGGTAATCCGTATTTGAC (site ACAGATCCTGT) | 0 |
| ACAAATCCATGGACCGGTTTTCCCGGTAATCCGTATTTGAC (site ACATATCCTGT) | 0 |
| ACAATCGCATGGACCGGTTTTCCCGGTAATCCGTATTTGAA (site ACAATCGCTTT) | 2.55 |
| ACAATGTCATGGACCGGTTTTCCCGGTAATCCGTATTTGCG (site ACAATGTCTCG) | 3.04 |
| ACACAAACATGGACCGGTTTTCCCGGTAATCCGTATTTGTC (site ACACAAACTGA) | 2.41 |
| ACACAAACATGGACCGGTTTTCCCGGTAATCCGTATTTGTC (site ACACCAACTGA) | 0 |
| ACACAAACATGGACCGGTTTTCCCGGTAATCCGTATTTGTC (site ACACGAACTGA) | 0 |
| ACACAAACATGGACCGGTTTTCCCGGTAATCCGTATTTGTC (site ACACTAACTGA) | 0 |
| ACACAACCATGGACCGGTTTTCCCGGTAATCCGTATTTGAC (site ACACAACCTGT) | 0 |
| ACACAACCATGGACCGGTTTTCCCGGTAATCCGTATTTGAC (site ACACACCCTGT) | 0 |
| ACACAACCATGGACCGGTTTTCCCGGTAATCCGTATTTGAC (site ACACAGCCTGT) | 0.668 |
| ACACAACCATGGACCGGTTTTCCCGGTAATCCGTATTTGAC (site ACACATCCTGT) | 0 |
| ACACATCCATGGACCGGTTTTCCCGGTAATCCGTATTTGAT (site ACACATCCTAT) | 1.34 |
| ACACATCCATGGACCGGTTTTCCCGGTAATCCGTATTTGAT (site ACACATCCTCT) | 0.0152 |
| ACACATCCATGGACCGGTTTTCCCGGTAATCCGTATTTGAT (site ACACATCCTGT) | 0 |
| ACACATCCATGGACCGGTTTTCCCGGTAATCCGTATTTGAT (site ACACATCCTTT) | 0.0785 |
| ACACATGCATGGACCGGTTTTCCCGGTAATCCGTATTTGAC (site ACACATACTGT) | 2.59 |
| ACACATGCATGGACCGGTTTTCCCGGTAATCCGTATTTGAC (site ACACATCCTGT) | 1.71 |
| ACACATGCATGGACCGGTTTTCCCGGTAATCCGTATTTGAC (site ACACATGCTGT) | 2.6 |
| ACACATGCATGGACCGGTTTTCCCGGTAATCCGTATTTGAC (site ACACATTCTGT) | 0.598 |
| ACACATTCATGGACCGGTTTTCCCGGTAATCCGTATTTGAC (site ACACATACTGT) | 0.745 |
| ACACATTCATGGACCGGTTTTCCCGGTAATCCGTATTTGAC (site ACACATCCTGT) | 0.331 |
